The record followed here is ChEMBL document CHEMBL4680322, “Mono- and bis-pyrazolophthalazines: Design, synthesis, cytotoxic activity, DNA/HSA binding and molecular docking studies” (Bioorg Med Chem, 2021).

Activity calls are given as the source filed them. The calls are words filed in the database; no cut-off is given here.

Series [1] has as its system HepG2. The experiment in a line: Cytotoxicity against human HepG2 cells assessed as reduction in cell viability measured after 24 hrs by MTT assay. As to conditions: HepG2, 24 h. Format: functional, cell-based. (In general: Tetrazolium dyes change colour on reduction, which living cells bring about.)
The test system of series [2] is HT-29. The experiment in a line: Cytotoxicity against human HT-29 cells assessed as reduction in cell viability measured after 24 hrs by MTT assay. Format: functional, cell-based. As to conditions: HT-29, 24 h.
In series [3] the test system is MCF7. The series is described as follows: Cytotoxicity against human MCF7 cells assessed as reduction in cell viability measured after 24 hrs by MTT assay. As to conditions: MCF7, 24 h. Format: functional, cell-based.
Series [4] deals with A549. The experiment in a line: Cytotoxicity against human A549 cells assessed as reduction in cell viability measured after 24 hrs by MTT assay. Format: functional, cell-based. The note with it: A549, 24 h.
In series [5] the test system is MCF-10A. The experiment in a line: Cytotoxicity against human MCF-10A cells assessed as reduction in cell viability. Format: cell-based.
Series [6] deals with MRC5. The series is described as follows: Cytotoxicity against human MRC5 cells assessed as reduction in cell viability. Format: cell-based.
Series [7] addresses T1, Albumin (Homo sapiens, UniProt P02768). The series is described as follows: Binding affinity to human serum albumin assessed as compound-protein complex stoichiometry ratio of 1:1 by B-H plot analysis. Format: ADME, cell-free.
For series [8], the target named is T1, Albumin. The series is described as follows: Binding affinity to human serum albumin assessed as apparent binding constant for protein-compound complex by B-H plot analysis. Format: ADME, cell-free.
Series [9] deals with Calf thymus DNA. The experiment in a line: Binding affinity to calf thymus DNA assessed as decrease in positive ellipticity by retaining basic CD spectrum shape at 187 uM by circular dichroism spectroscopy. As to conditions: Bos taurus. Background: Circular dichroism is widely used to follow secondary structure.
Series [10] addresses T1, Albumin. The series is described as follows: Binding affinity to human serum albumin assessed as conformational changes at 2 to 187 uM by UV-Visible spectroscopy. Format: ADME, cell-free. The note with it: dose 2-187 µM.
Series [11] concerns Calf thymus DNA. The experiment in a line: Binding affinity to calf thymus DNA assessed as DNA-compound complex formation causing decrease in band intensity at 3 to 187 uM and pH 7.4 by UV-Visible spectroscopy. The note with it: Bos taurus, dose 3-187 µM.
The target of series [12] is T1, Albumin. The experiment in a line: Binding affinity to human serum albumin assessed as microenvironmental changes at 2 to 187 uM by UV-Visible spectroscopy. Format: ADME, cell-free. The note with it: dose 2-187 µM.
In series [13] the test system is Calf thymus DNA. The experiment in a line: Binding affinity to calf thymus DNA assessed as compound-DNA complex stoichiometry ratio of 1:1 by B-H plot analysis. As to conditions: Bos taurus.
The target of series [14] is T1, Albumin. The series is described as follows: Binding affinity to human serum albumin assessed as change in hydrodynamic radius by dynamic light scattering analysis (reference value: 3.56 nanometer). Format: ADME, cell-free.
Series [15] concerns Calf thymus DNA. The series is described as follows: Binding affinity to calf thymus DNA assessed as zeta potential (reference value: -24.16 mV). The note with it: Bos taurus. Format: tissue-based.
Series [16] has as its target T1, Albumin. The series is described as follows: Binding affinity to human serum albumin assessed as alpha-helix perturbation with reduction in absorption intensity at 214 nm causing blue shift at 2 to 187 uM by UV-Visible spectroscopy. As to conditions: dose 2-187 µM. Format: ADME, cell-free.
The test system of series [17] is Calf thymus DNA. The series is described as follows: Binding affinity to calf thymus DNA assessed as apparent binding constant for DNA-compound complex by B-H plot analysis. The note with it: Bos taurus.
For series [18], the system named is MCF7. The series is described as follows: Potency index, ratio of doxorubicin IC50 to test compound IC50 for human MCF7 cells assessed as reduction in cell viability measured after 24 hrs by MTT assay. Format: functional.
Series [19] has as its target T1, Albumin. The experiment in a line: Binding affinity to human serum albumin assessed as induction of secondary structural changes by measuring decrease in alpha content at 187 uM by circular dichroism spectroscopy relative to control. Details: scale not given: the % may be the effect or the level left. Format: cell-free.
The test system of series [20] is Calf thymus DNA. The experiment in a line: Binding affinity to calf thymus DNA assessed as DNA-compound complex formation causing decrease in lambda-max shift at 3 to 187 uM and pH 7.4 by UV-Visible spectroscopy. As to conditions: Bos taurus, dose 3-187 µM.
In series [21] the test system is A549. The experiment in a line: Potency index, ratio of doxorubicin IC50 to test compound IC50 for human A549 cells assessed as reduction in cell viability measured after 24 hrs by MTT assay. Format: functional.
The target of series [22] is T1, Albumin. The series is described as follows: Binding affinity to human serum albumin assessed as zeta potential by measuring surface charge (reference value: -16.15 mV). Format: ADME, cell-free.

T1 sequence (P02768 whole entry): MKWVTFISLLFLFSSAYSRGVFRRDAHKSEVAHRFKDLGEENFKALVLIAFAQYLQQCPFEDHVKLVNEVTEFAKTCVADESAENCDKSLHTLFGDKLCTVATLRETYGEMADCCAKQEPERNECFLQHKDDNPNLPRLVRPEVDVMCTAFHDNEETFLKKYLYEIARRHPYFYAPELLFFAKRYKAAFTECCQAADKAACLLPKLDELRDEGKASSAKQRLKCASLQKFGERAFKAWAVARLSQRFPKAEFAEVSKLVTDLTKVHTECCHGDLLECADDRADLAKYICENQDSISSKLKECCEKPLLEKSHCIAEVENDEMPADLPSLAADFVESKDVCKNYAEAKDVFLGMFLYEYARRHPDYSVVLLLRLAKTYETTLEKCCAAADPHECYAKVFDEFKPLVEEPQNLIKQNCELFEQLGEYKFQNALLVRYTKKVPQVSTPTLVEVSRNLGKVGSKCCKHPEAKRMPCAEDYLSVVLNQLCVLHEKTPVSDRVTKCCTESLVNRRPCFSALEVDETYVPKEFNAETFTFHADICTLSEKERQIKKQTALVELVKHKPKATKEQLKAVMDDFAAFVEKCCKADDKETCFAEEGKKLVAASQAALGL

For `N#CC1=C(N)n2c(=O)c3ccccc3c(=O)n2C1c1ccccc1OCCCOc1ccccc1C1C(C#N)=C(N)n2c(=O)c3ccccc3c(=O)n21` (centres undefined), the IC50 (in general, the point on the concentration scale where inhibition reaches its midpoint) is 104 µM in [1], 44.6 µM in series [2], 35.2 µM in [3] and 104 µM in series [4].
As for `N#CC1=C(N)n2c(=O)c3ccccc3c(=O)n2C1c1ccc(OCCCOc2ccc(C3C(C#N)=C(N)n4c(=O)c5ccccc5c(=O)n43)cc2)cc1` (centres undefined), the half-maximal inhibitory concentration (IC50) in series [1] amounted to 36.2 µM; in series [2] it was 3.1 µM; in series [3] it was 0.66 µM; in series [4], 2.47 µM.
For `N#CC1=C(N)n2c(=O)c3ccccc3c(=O)n2C1c1ccc(C2C(C#N)=C(N)n3c(=O)c4ccccc4c(=O)n32)cc1` (centres undefined), in that order: 84.6 µM, 90.9 µM, 11.4 µM and 17.6 µM.
Take `N#CC1=C(N)n2c(=O)c3ccccc3c(=O)n2C1c1ccc(O)c([N+](=O)[O-])c1` (centres undefined): the IC50 was determined as 19.5 µM in series [1], 124 µM in series [2], 77.4 µM in series [3] and 47.5 µM in series [4].
Consider `N#CC1=C(N)n2c(=O)c3ccccc3c(=O)n2C1c1ccc(OCCCCOc2ccc(C3C(C#N)=C(N)n4c(=O)c5ccccc5c(=O)n43)cc2)cc1` (centres undefined), for which the IC50 in series [1] was 426 µM; in [2], 419 µM; in series [3], 155 µM; in series [4], 264 µM.
The corresponding values for `N#CC1=C(N)n2c(=O)c3ccccc3c(=O)n2C1c1ccccc1` (centres undefined) are 81.7 µM, 132 µM, 41.6 µM and 39.7 µM.
Take `N#CC1=C(N)n2c(=O)c3ccccc3c(=O)n2C1c1cccc(Cl)c1` (centres undefined): the IC50 worked out at 28.2 µM in series [1], 69.3 µM in series [2], 7.84 µM in series [3] and 11.6 µM in [4].
Turning to `COc1ccc(C2C(C#N)=C(N)n3c(=O)c4ccccc4c(=O)n32)cc1` (centres undefined), the IC50 in [1] was 93.8 µM; in series [2], 66.5 µM; in series [3], 23.9 µM; in [4], 39.8 µM.
Turning to `COc1cccc(C2C(C#N)=C(N)n3c(=O)c4ccccc4c(=O)n32)c1` (centres undefined), the IC50 was 178 µM in series [1], 107 µM in [2], 23.2 µM in [3] and 38.3 µM in series [4].
The corresponding values for `N#CC1=C(N)n2c(=O)c3ccccc3c(=O)n2C1c1ccc(OCCOc2ccc(C3C(C#N)=C(N)n4c(=O)c5ccccc5c(=O)n43)cc2)cc1` (centres undefined) are 249 µM, 268 µM, 91.3 µM and 183 µM.
In the case of `COc1cccc2c1C(=O)c1c(O)c3c(c(O)c1C2=O)C[C@@](O)(C(=O)CO)C[C@@H]3O[C@H]1C[C@H](N)[C@H](O)[C@H](C)O1` [DOXORUBICIN], the IC50 in series [1] amounted to 2.32 µM; in [2] it was 1.13 µM; in series [5], 3.52 µM; in series [6] it was 3.88 µM; in series [3], 1.77 µM; in series [4], 2.31 µM.
Turning to `COc1ccc(C2C(C#N)=C(N)n3c(=O)c4ccccc4c(=O)n32)cc1OC` (centres undefined), the IC50 in [1] worked out at 73.5 µM; in series [2], 36.4 µM; in series [3] it was 5.1 µM; in [4], 24.7 µM.
Take `N#CC1=C(N)n2c(=O)c3ccccc3c(=O)n2C1c1ccc([N+](=O)[O-])cc1` (centres undefined): the IC50 is 170 µM in [1], 79.1 µM in series [2], 60.8 µM in [3] and 212 µM in series [4].
The corresponding values for `COc1ccccc1C1C(C#N)=C(N)n2c(=O)c3ccccc3c(=O)n21` (centres undefined) are 697 µM, 79.7 µM, 455 µM and 627 µM.
`N#CC1=C(N)n2c(=O)c3ccccc3c(=O)n2C1c1ccccc1OCCOc1ccccc1C1C(C#N)=C(N)n2c(=O)c3ccccc3c(=O)n21` (centres undefined): the IC50 is 11.6 µM in series [1]; 3.71 µM in series [2]; 61.2 µM in [5]; 71.2 µM in [6]; 0.49 µM in series [3]; 1.35 µM in [4]. Further, the Activity result is “Active” in series [7]; -17.8 mV in [9]; “Active” in series [10]; “Active” in [12]; 5.28 nm in series [14]; “Active” in series [16]. For the same compound, the Activity was 48.08% in series [19] and -14.41 mV in [22]. The Kapp in series [8] was 3.8 10^4/M; in [17], 5 10^4/M. The result in series [11], in series [13], in series [15] and in series [20] was Active. Also, the “Ratio IC50” value in [18] and in series [21] was 2 each time.
As for `N#CC1=C(N)n2c(=O)c3ccccc3c(=O)n2C1c1ccc(Cl)cc1` (centres undefined), the IC50 is 16.8 µM in [1], 25.4 µM in [2], 5.53 µM in series [3] and 40.6 µM in series [4].
For `N#CC1=C(N)n2c(=O)c3ccccc3c(=O)n2C1c1ccccc1OCCCCOc1ccccc1C1C(C#N)=C(N)n2c(=O)c3ccccc3c(=O)n21` (centres undefined), in that order: 244 µM, 82.4 µM, 44.6 µM and 111 µM.
For `N#CC1=C(N)n2c(=O)c3ccccc3c(=O)n2C1c1cccc(C2C(C#N)=C(N)n3c(=O)c4ccccc4c(=O)n32)c1` (centres undefined), in that order: 50.8 µM, 186 µM, 8.66 µM and 18.2 µM.
As for `N#CC1=C(N)n2c(=O)c3ccccc3c(=O)n2C1c1ccccc1Cl` (centres undefined), the IC50 came to 27.9 µM in series [1]; 7.14 µM in series [2]; 213 µM in series [5]; 388 µM in series [6]; 7.32 µM in [3]; 1.25 µM in series [4]. The Activity result is “Active” in [7]; -18.1 mV in series [9]; “Active” in series [10]; “Active” in series [12]; 5.13 nm in [14]; “Active” in series [16]. Besides, the Activity in series [19] is listed as 47.71%; in series [22], -13.25 mV. The figures for the Kapp in [8] and in series [17] were 5.2 10^3/M and 4.2 10^4/M, respectively. For the same compound, the outcome in [11], in [13], in series [15] and in series [20] was Active.
As to `N#CC1=C(N)n2c(=O)c3ccccc3c(=O)n2C1c1cccc([N+](=O)[O-])c1` (centres undefined), the IC50 in [1] worked out at 12.6 µM; in series [2], 41.1 µM; in series [3], 39.9 µM; in [4] it was 18.3 µM.
In the case of `N#CC1=C(N)n2c(=O)c3ccccc3c(=O)n2C1c1ccc(Cl)cc1Cl` (centres undefined), the IC50 in [1] came out at 11.4 µM; in series [2], 1.56 µM; in [3] it was 10.4 µM; in series [4] it was 64 µM.
In the case of `N#CC1=C(N)n2c(=O)c3ccccc3c(=O)n2C1c1ccc(Br)cc1` (centres undefined), the IC50 stood at 40.5 µM in [1], 31 µM in [2], 5.97 µM in series [3] and 81.6 µM in series [4].
